Assay results taken from patent US20250353821A1, “BENZENE SULFONAMIDE THIAZOLE COMPOUNDS AND THEIR USE FOR THE TREATMENT OF CANCERS” (INSERM (INSTITUT NATIONAL DE LA SANTÉ ET DE LA RECHERCHE …, priority 2021, published 2025).
Converted amounts (≈) assume the structure as drawn.

Assays:
[1] = system: A375 melanoma cells; assay: Cell viability by cell counting, trypan blue exclusion method; assay type: cell-based; details: Homo sapiens, A-375, 48 h, percentage of cells alive relative to negative control DMSO (100%)
[2] = system: A375 melanoma cells; assay: IC50 determination in A375 cells, blue trypan exclusion; assay type: cell-based, human; details: Homo sapiens, A-375; A375, serum free, 24 h
[3] = system: CHOP in A375 melanoma cells; assay: CHOP induction (ER stress marker), western blot, A375; assay type: cell-based, human; parameters: key: −: No induction of CHOP; +: Induction of CHOP; ++: Significant induction of CHOP; +++: Strong induction of CHOP; details: A375 (serum free), 24 h
[4] = system: CHOP in Kyse 70 cells; assay: CHOP induction (ER stress marker), western blot, Kyse70; assay type: cell-based, human; parameters: key: −: No induction of CHOP; +: Induction of CHOP; ++: Significant induction of CHOP; +++: Strong induction of CHOP; details: Kyse70 (serum free), 24 h
[5] = system: CHOP in SH10TC cells; assay: CHOP induction (ER stress marker), western blot, SH10TC; assay type: cell-based, human; parameters: key: −: No induction of CHOP; +: Induction of CHOP; ++: Significant induction of CHOP; +++: Strong induction of CHOP; details: SH10TC (serum free), 24 or 48 h
[6] = system: CHOP in KATO III cells; assay: CHOP induction (ER stress marker), western blot, Kato III; assay type: cell-based, human; parameters: key: −: No induction of CHOP; +: Induction of CHOP; ++: Significant induction of CHOP; +++: Strong induction of CHOP; details: Kato III (1% SVF), 24 or 48 h
[7] = Aqueous solubility; assay type: physicochemical; details: aqueous medium (not further specified), read-out: Solublity

## CC(=O)NCCCC(=O)Nc1nc(-c2cccc(NS(=O)(=O)c3cccc4c(N(C)C)cccc34)c2)cs1 [PB633]
[1]
  viability at 5 µM: 65.2 ± 9.9%
  viability at 10 µM: 43.8 ± 12.7%

## Cc1nc(-c2cccc(NS(=O)(=O)c3cccc4c(N(C)C)cccc34)c2)cs1 [PB635, 5-(dimethylamino)-N-(3-(2-methylthiazol-4-yl)phenyl)naphthalene-1-sulfonamide]
[1]
  viability at 5 µM: 47 ± 13.5%
  viability at 10 µM: 46.9 ± 4.4%

## CN1CCN(CCCCCC(=O)Nc2nc(-c3cccc(NS(=O)(=O)c4cccc5c(N(C)C)cccc45)c3)cs2)CC1 [PB697, N-(4-(3-((5-(dimethylamino)naphthalene)-1-sulfonamido)phenyl)thiazol-2-yl)-6-(4-methylpiperazin-1-yl)hexanamide]
[2]
  IC50: 2 µM

## CCCCCc1ccc(S(=O)(=O)Nc2cccc(-c3csc(NC(=O)CNCCN(C)C)n3)c2)cc1 [PB693, 2-((2-(dimethylamino)ethyl)amino)-N-(4-(3-((4-pentylphenyl)sulfonamido)phenyl)thiazol-2-yl)acetamide]
[3]
  Induction of CHOP in comparison to control condition, A375: ++
[4]
  Induction of CHOP in comparison to control condition, Kyse70: +
[5]
  Induction of CHOP in comparison to control condition, SH10TC: −
[6]
  Induction of CHOP in comparison to control condition, Kato III: −
[2]
  IC50: 1 µM

## COCCOc1ccc(-c2csc(NC(C)=O)n2)cc1NS(=O)(=O)c1cccc2c(N(C)C)cccc12 [PB603, N-(4-(3-((5-(dimethylamino)naphthalene)-1-sulfonamido)-4-(2-methoxyethoxy)phenyl)thiazol-2-yl)acetamide]
[1]
  viability at 10 µM: 43.1 ± 8.7%

## CN(C)c1cccc2c(S(=O)(=O)Nc3cccc(-c4csc(NC(=O)CNCCCN5CCOCC5)n4)c3)cccc12 [PB644, N-(4-(3-((5-(dimethylamino)naphthalene)-1-sulfonamido)phenyl)thiazol-2-yl)-2-((3-morpholinopropyl)amino)acetamide]
[1]
  viability at 1 µM: 83.3 ± 23.6%
  viability at 5 µM: 11.7 ± 1.2%
  viability at 10 µM: 8%

## CN(C)c1cccc2c(S(=O)(=O)Nc3cccc(-c4csc(NC(=O)COCC(O)CO)n4)c3)cccc12 (centres unmarked) [PB605, 2-(2,3-dihydroxypropoxy)-N-(4-(3-((5-(dimethylamino)naphthalene)-1-sulfonamido)phenyl)thiazol-2-yl)acetamide]
[7]
  solubility: 2.8 ± 0.5 µM (≈ 1.56 µg/mL)
[1]
  viability at 1 µM: 64.5 ± 4.3%
  viability at 5 µM: 29.4 ± 9.8%
  viability at 10 µM: 6.4 ± 0.6%

## COCCOc1ccc(-c2csc(NC(=O)CN3CCN(CCO)CC3)n2)cc1NS(=O)(=O)c1cccc2c(N(C)C)cccc12 [PB604, N-(4-(3-((5-(dimethylamino)naphthalene)-1-sulfonamido)-4-(2-methoxyethoxy)phenyl)thiazol-2-yl)-2-(4-(2-hydroxyethyl)piperazin-1-yl)acetamide]
[7]
  solubility: 4.1 ± 0.4 µM (≈ 2.74 µg/mL)
[1]
  viability at 1 µM: 57.7 ± 16.5%
  viability at 5 µM: 19 ± 8.6%
  viability at 10 µM: 16.3 ± 9.8%

## CN(C)c1cccc2c(S(=O)(=O)Nc3cccc(-c4csc(NC(=O)CNCCS(=O)(=O)O)n4)c3)cccc12 [PB654, 2-((2-((4-(3-((5-(dimethylamino)naphthalene)-1-sulfonamido)phenyl)thiazol-2-yl)amino)-2-oxoethyl)amino)ethane-1-sulfonic]
[7]
  solubility: 88 ± 3 µM (≈ 51.9 µg/mL)
[1]
  viability at 5 µM: 89.4 ± 6.5%
  viability at 10 µM: 70 ± 13.8%

## CN(C)c1cccc2c(S(=O)(=O)Nc3cccc(-c4csc(NC(=O)CCCCCN5CCN(CCO)CC5)n4)c3)cccc12 [PB698, N-(4-(3-((5-(dimethylamino)naphthalene)-1-sulfonamido)phenyl)thiazol-2-yl)-6-(4-(2-hydroxyethyl)piperazin-1-yl)hexanamide]
[2]
  IC50: 1.75 µM

## CCOC(=O)CCCC(=O)Nc1nc(-c2cccc(NS(=O)(=O)c3cccc4c(N(C)C)cccc34)c2)cs1 [PB625, Ethyl 5-((4-(3-((5-(dimethylamino)naphthalene)-1-sulfonamido)phenyl)thiazol-2-yl)amino)-5-oxopentanoate]
[1]
  viability at 5 µM: 93 ± 3%
  viability at 10 µM: 36.5 ± 7.5%

## CCCCCc1ccc(S(=O)(=O)Nc2cccc(-c3csc(N4CCN(C)CC4)n3)c2)cc1 [PB707, N-(3-(2-(4-methylpiperazin-1-yl)thiazol-4-yl)phenyl)-4-pentylbenzenesulfonamide]
[2]
  IC50: 2.5 µM

## CN(C)c1cccc2c(S(=O)(=O)Nc3cccc(-c4csc(NC(=O)CCCNC(=O)OC(C)(C)C)n4)c3)cccc12 [PB631, Tert-butyl (4-((4-(3-((5-(dimethylamino)naphthalene)-1-sulfonamido)phenyl)thiazol-2-yl)amino)-4-oxobutyl)carbamate]
[1]
  viability at 5 µM: 31.3 ± 4.9%
  viability at 10 µM: 35.4 ± 14.2%

## CCOP(=O)(NCC(=O)Nc1nc(-c2cccc(NS(=O)(=O)c3cccc4c(N(C)C)cccc34)c2)cs1)OCC [PB649, Diethyl-(2-((4-(3-((5-(dimethylamino)naphthalene)-1-sulfonamido)phenyl)thiazol-2-yl)amino)-2-oxoethyl)phosphoramidate]
[1]
  viability at 5 µM: 77.7 ± 19.8%
  viability at 10 µM: 26.4 ± 4.5%

## CN(C)c1cccc2c(S(=O)(=O)Nc3cc(-c4csc(NC(=O)CN5CCN(CCO)CC5)n4)ccc3F)cccc12 [PB601, N-(4-(3-((5-(dimethylamino)naphthalene)-1-sulfonamido)-4-fluorophenyl)thiazol-2-yl)-2-(4-(2-hydroxyethyl)piperazin-1-yl)acetamide]
[7]
  solubility: 5.2 ± 1.9 µM (≈ 3.19 µg/mL)
[1]
  viability at 1 µM: 47.2 ± 6.7%
  viability at 5 µM: 22.5 ± 5.3%
  viability at 10 µM: 10.2 ± 2.7%

## CN(C)c1cccc2c(S(=O)(=O)Nc3cccc(-c4csc(NC(=O)CCCCCNC(=O)OC(C)(C)C)n4)c3)cccc12 [PB624, Tert-butyl(6-((4-(3-((5-(dimethylamino)naphthalene)-1-sulfonamido)phenyl)thiazol-2-yl)amino)-6-oxohexyl)carbamate]
[1]
  viability at 5 µM: 87.8 ± 16.2%
  viability at 10 µM: 33.3 ± 5.5%

## CCCCCc1ccc(S(=O)(=O)Nc2cccc(-c3csc(N4CCN(CCO)CC4)n3)c2)cc1 [PB708, N-(3-(2-(4-(2-hydroxyethyl)piperazin-1-yl)thiazol-4-yl)phenyl)-4-pentylbenzenesulfonamide]
[2]
  IC50: 2.5 µM

## CN(C)c1cccc2c(S(=O)(=O)Nc3cccc(-c4csc(NC(=O)CN5CCC(C(N)=O)CC5)n4)c3)cccc12 [PB641, 1-(2-((4-(3-((5-(dimethylamino)naphthalene)-1-sulfonamido)phenyl)thiazol-2-yl)amino)-2-oxoethyl)piperidine-4-carboxamide]
[1]
  viability at 1 µM: 104 ± 5.9%
  viability at 5 µM: 105 ± 18.9%
  viability at 10 µM: 40%

## CN(C)c1cccc2c(S(=O)(=O)Nc3cccc(-c4csc(NC(=O)CNCCO)n4)c3)cccc12 [PB643, N-(4-(3-((5-(dimethylamino)naphthalene)-1-sulfonamido)phenyl)thiazol-2-yl)-2-((2-hydroxyethyl)amino)acetamide]
[7]
  solubility: 3 ± 1 µM (≈ 1.58 µg/mL)
[1]
  viability at 1 µM: 108 ± 11.8%
  viability at 5 µM: 29.8 ± 6.5%
  viability at 10 µM: 0%

## CN(C)c1cccc2c(S(=O)(=O)Nc3cccc(-c4csc(NC(=O)CN5CCOCC5)n4)c3)cccc12 [PB639, N-(4-(3-((5-(dimethylamino)naphthalene)-1-sulfonamido)phenyl)thiazol-2-yl)-2-morpholinoacetamide]
[1]
  viability at 1 µM: 100 ± 23.6%
  viability at 5 µM: 63.5 ± 16%
  viability at 10 µM: 24%

## CC(=O)Nc1nc(-c2ccc(F)c(NS(=O)(=O)c3cccc4c(N(C)C)cccc34)c2)cs1 [PB651, N-(4-(3-((5-(dimethylamino)naphthalene)-1-sulfonamido)-4-fluorophenyl)thiazol-2-yl)acetamide]
[1]
  viability at 5 µM: 89.4 ± 5.6%
  viability at 10 µM: 25 ± 8.1%

## COc1ccc(-c2csc(NC(C)=O)n2)cc1NS(=O)(=O)c1cccc2c(N(C)C)cccc12 [PB600, N-(4-(3-((5-(dimethylamino)naphthalene)-1-sulfonamido)-4-methoxyphenyl)thiazol-2-yl)acetamide]
[1]
  viability at 10 µM: 48.8 ± 4.3%

## CN1CCN(CC(=O)Nc2nc(-c3cccc(NS(=O)(=O)c4cccc5c(N(C)C)cccc45)c3)cs2)CC1 [PB638, N-(4-(3-((5-(dimethylamino)naphthalene)-1-sulfonamido)phenyl)thiazol-2-yl)-2-(4-methylpiperazin-1-yl)acetamide]
[7]
  solubility: 4 ± 2 µM (≈ 2.26 µg/mL)
[1]
  viability at 1 µM: 37.5 ± 5.9%
  viability at 5 µM: 0.9 ± 1%
  viability at 10 µM: 0%

## COc1ccc(-c2csc(NC(=O)CN3CCN(CCO)CC3)n2)cc1NS(=O)(=O)c1cccc2c(N(C)C)cccc12 [PB602, N-(4-(3-((5-(dimethylamino)naphthalene)-1-sulfonamido)-4-methoxyphenyl)thiazol-2-yl)-2-(4-(2-hydroxyethyl)piperazin-1-yl)acetamide]
[7]
  solubility: 3.4 ± 0.7 µM (≈ 2.12 µg/mL)
[1]
  viability at 1 µM: 47.6 ± 2.4%
  viability at 5 µM: 1.7 ± 0.9%
  viability at 10 µM: 1 ± 1%

## CN(C)c1cccc2c(S(=O)(=O)Nc3cccc(-c4csc(NC(=O)CN5CCN(CCO)CC5)n4)c3)cccc12 [PB640, N-(4-(3-((5-(dimethylamino)naphthalene)-1-sulfonamido)phenyl)thiazol-2-yl)-2-(4-(2-hydroxyethyl)piperazin-1-yl)acetamide]
[7]
  solubility: 4.2 ± 0.4 µM (≈ 2.5 µg/mL)
[1]
  viability at 1 µM: 54.2 ± 5.9%
  viability at 5 µM: 67 ± 10.6%
  viability at 10 µM: 0%
